Strand notation (5' to 3'): a small letter for the sugar, then the base; units joined by * are phosphorothioate-linked, units joined directly phosphodiester-linked; [ ] holds rarer units or linkages, { } end groups; capitals alone tell only the bases. e = 2'-O-(2-methoxyethyl) (MOE); k = constrained ethyl (cEt); [5mC] = 5-methylcytosine; d = 2'-deoxy (DNA); m = 2'-O-methyl
tested on: Yap1 mRNA; test: Antisense inhibition of human Yap1 in SNU-449 cells by modified oligonucleotides, single dose (Example 5, RTS36584); assay type: cell-based; conditions: Table 39; SNU-449 cells, 10,000 cells per well, free uptake, 2,000 nM oligonucleotide, approx. 48 hours; RTS36584; normalized to RIBOGREEN; Yap1 mRNA relative to untreated control
Protocol: Modified oligonucleotides with additional chemistry modifications were designed to target a Yap1 nucleic acid and were tested for their effect on Yap1 mRNA level in SNU-449 cells. The modified oligonucleotides were tested in a series of experiments that had similar culture conditions. Cultured SNU-449 cells at a density of 10,000 cells per well were treated using free uptake with 2,000 nM of modified oligonucleotide. After a treatment period of approximately 48 hours, RNA was isolated from the cells and Yap1 mRNA levels were measured by quantitative real-time RTPCR. Human primer probe set RTS36584 was used to measure mRNA levels. Yap1 mRNA levels were normalized to total RNA content, as measured by RIBOGREEN®. Results are presented in the tables below as percent control of the amount of Yap1 mRNA relative to untreated control cells (% UTC). The modified oligonucleotides with percent control values marked with an asterisk (*) target the amplicon region of the primer probe set. Additional assays may be used to measure the potency and efficacy of the modified oligonucleotides targeting the amplicon region.
Several different chemistry modifications were tested, which are specified in the Chemistry Notation column of the tables below, wherein the notation “d” refers to a 2′-deoxyribose sugar, the notation “s” refers to a phosphorothioate (P═S) internucleoside linkage, the notation “k” refers to a cEt modified sugar, the notation “y” refers to a 2′-O-methyl ribose sugar, the notation “e” refers to a MOE modified sugar, and the notation “^mC” refers to a 5-methylcytosine.
“Start site” indicates the 5′-most nucleoside to which the gapmer is targeted in the human gene sequence. “Stop site” indicates the 3′-most nucleoside to which the gapmer is targeted human gene sequence. […] Activity of the modified oligonucleotide may be defined in a different experiment.

| Substance | YAP1 (% UTC) |
| --- | --- |
| 1198390 (kA*dG*dG*dT*dA*dT*dA*dA*d[5mC]*dT*dG*kG*eG*k[5mC]*eA*kA; antisense) [Compound 1198390] | 37 |
| 1198374 (kG*dA*dA*dA*dT*dT*dG*dT*d[5mC]*dT*d[5mC]*kA*eT*kG*e[5mC]*k[5mC]; antisense) [Compound 1198374] | 24 |
| 1198371 (kA*dT*dT*dG*dT*d[5mC]*dT*d[5mC]*dA*dT*dG*k[5mC]*e[5mC]*kT*eT*kA; antisense) [Compound 1198371] | 15 |
| 1198430 (kA*dT*dA*dT*dT*dG*d[5mC]*dA*dA*dT*d[5mC]*kT*eG*kT*e[5mC]*kT) [Compound 1198430] | 49 |

same assay, conditions: Table 40 (separate experiment); SNU-449 cells, 10,000 cells per well, free uptake, 2,000 nM oligonucleotide, approx. 48 hours; RTS36584; normalized to RIBOGREEN; Yap1 mRNA relative to untreated control

| Substance | YAP1 (% UTC) |
| --- | --- |
| 1198744 (kA*e[5mC]*kT*dT*dT*dT*dA*d[5mC]*dA*dT*dT*dA*eG*eG*kA*kA; antisense) [Compound 1198744] | 66 |
| 1198438 (kT*dG*dT*dA*dT*dG*dT*d[5mC]*dA*dG*dA*kA*eG*kA*eG*kT; antisense) [Compound 1198438] | 7 |
| 1198731 (kT*e[5mC]*kT*dA*dT*dA*dT*dT*dA*dG*dA*dG*eT*eA*kT*kG; antisense) [Compound 1198731] | 59 |

same assay, conditions: Table 41; SNU-449 cells, 10,000 cells per well, free uptake, 2,000 nM modified oligonucleotide, approximately 48 hours; RTS36584; normalized to RIBOGREEN; Yap1 mRNA relative to untreated control cells

| Substance | YAP1 (% UTC) |
| --- | --- |
| 1198643 (kA*kT*dA*dT*dT*dA*dG*dA*dG*dT*dA*dT*kG*eT*kG*eG; antisense) [Compound 1198643] | 25 |
| 1198632 (kG*kA*dA*dA*dT*dT*dG*dT*d[5mC]*dT*d[5mC]*dA*kT*eG*k[5mC]*e[5mC]; antisense) [Compound 1198632] | 21 |
| 1198670 (antisense kT*kT*dA*dG*dG*dA*dT*dG*d[5mC]*dA*dT*dG*kG*eT*kT*eT) [Compound 1198670] | 55 |

same assay, conditions: Table 42 (separate experiment); SNU-449 cells, 10,000 cells per well, free uptake, 2,000 nM modified oligonucleotide, approximately 48 hours; RTS36584; normalized to RIBOGREEN; Yap1 mRNA relative to untreated control cells

| Substance | YAP1 (% UTC) |
| --- | --- |
| 1198713 (kT*kT*dA*dG*dA*d[5mC]*dT*dA*dA*dG*dT*dA*kA*eG*kG*eT; antisense) [Compound 1198713] | 62 |
| 1198696 (antisense kT*kG*dT*dA*dT*dG*dT*d[5mC]*dA*dG*dA*dA*kG*eA*kG*eT) [Compound 1198696] | 12 |
| 1198233 (k[5mC]*kT*dT*dT*dG*dG*dA*dA*dG*dA*dT*e[5mC]*eT*eG*kA*kA) [Compound 1198233] | 49 |
| 1198240 (kT*kT*dA*dG*dG*dA*dT*dG*d[5mC]*dA*dT*eG*eG*eT*kT*kT) [Compound 1198240] | 43 |
| 1198209 (kT*kA*dG*dA*dG*dT*dA*dT*dG*dT*dG*eG*e[5mC]*eA*kA*kT; antisense) [Compound 1198209] | 45 |
| 1198704 (kA*kA*d[5mC]*dT*dT*dT*dA*dA*dA*dG*dT*dG*kT*eA*kT*eG; antisense) [Compound 1198704] | 72 |

same assay, conditions: Table 43 experiment; SNU-449 cells, 10,000 cells per well, free uptake, 2,000 nM, approximately 48 hours; RTS36584; Yap1 mRNA normalized to RIBOGREEN, relative to untreated control cells

| Substance | YAP1 (% UTC) |
| --- | --- |
| 1198462 (antisense kT*kG*dG*dA*dA*dA*dT*dT*dG*dT*d[5mC]*eT*k[5mC]*eA*kT*eG) [Compound 1198462] | 27 |
| 1198479 (antisense kT*kT*dA*d[5mC]*dA*dT*dT*dA*dG*dG*dA*eA*k[5mC]*eA*kA*eG) [Compound 1198479] | 65 |
| 1198483 (antisense k[5mC]*kA*d[5mC]*dT*dT*dT*dT*dA*d[5mC]*dA*dT*eT*kA*eG*kG*eA) [Compound 1198483] | 31 |

same assay, conditions: Table 44 experiment; SNU-449 cells, 10,000 cells per well, free uptake, 2,000 nM, approximately 48 hours; RTS36584; Yap1 mRNA normalized to RIBOGREEN, relative to untreated control cells

| Substance | YAP1 (% UTC) |
| --- | --- |
| 1198523 (kT*kT*dT*dA*dT*dG*dT*dA*dA*dT*dA*eT*kT*eG*k[5mC]*eA; antisense) [Compound 1198523] | 93 |
| 1198495 (antisense kA*kG*dT*dG*d[5mC]*dT*dT*dT*dG*dG*dA*eA*kG*eA*kT*e[5mC]) [Compound 1198495] | 22 |
| 1198907 (kT*k[5mC]*dT*dA*dT*dA*dT*dT*dA*dG*dA*kG*dT*kA*dT*kG; antisense) [Compound 1198907] | 74 |
| 1198502 (kA*kG*dA*dT*dT*dT*dA*dG*dG*dA*dT*eG*k[5mC]*eA*kT*eG; antisense) [Compound 1198502] | 16 |

same assay, conditions: Table 45; Yap1 mRNA as percent of untreated control, SNU-449 cells, single dose

| Substance | YAP1 (% UTC) |
| --- | --- |
| 1198936 (kA*kG*dA*dT*dT*dT*dA*dG*dG*dA*dT*kG*d[5mC]*kA*dT*kG; antisense) [Compound 1198936] | 38 |
| 1198965 (k[5mC]*kT*dT*dT*dA*dA*dA*dG*dT*dG*dT*kA*dT*kG*dT*k[5mC]; antisense) [Compound 1198965] | 95 |
| 1198927 (kT*kG*d[5mC]*dT*dT*dT*dG*dG*dA*dA*dG*kA*dT*k[5mC]*dT*kG; antisense) [Compound 1198927] | 50 |

same assay, conditions: Table 46; Yap1 mRNA as percent of untreated control, SNU-449 cells, single dose

| Substance | YAP1 (% UT) |
| --- | --- |
| 1198887 (kG*kA*d[5mC]*dT*dA*dA*dG*dT*dA*dA*dG*kG*eT*kT*eT*k[5mC]; antisense) [Compound 1198887] | 71 |
| 1198834 (kA*kA*dG*d[5mC]*dA*d[5mC]*dT*dT*dT*dT*dA*k[5mC]*eA*kT*eT*kA; antisense) [Compound 1198834] | 54 |

same assay, conditions: Table 48; Yap1 mRNA level relative to untreated control; modified oligonucleotides targeting SEQ ID NO.: 1 and 2

| Substance | YAP1 (% UT) |
| --- | --- |
| 1198299 (ATATTAGAGTATGTGG; chemistry not fully specified) [Compound 1198299] | 27 |
| 1198319 (k[5mC]*kT*kT*dT*dG*dG*dA*dA*dG*dA*dT*d[5mC]*kT*eG*kA*eA; antisense) [Compound 1198319] | 47 |
| 1198322 (kG*kT*kG*d[5mC]*dT*dT*dT*dG*dG*dA*dA*dG*kA*eT*k[5mC]*eT; antisense) [Compound 1198322] | 48 |

same assay, conditions: Table 49; Yap1 mRNA level relative to untreated control; modified oligonucleotides targeting SEQ ID NO.: 1 and 2

| Substance | YAP1 (% UT) |
| --- | --- |
| 1198549 (antisense kA*kT*kG*dG*dA*dA*dA*dT*dT*dG*dT*d[5mC]*kT*k[5mC]*kA*eT) [Compound 1198549] | 84 |
| 1198584 (antisense TTAGGATGCATGGTTT; chemistry not fully specified) [Compound 1198584] | 37 |
| 1198547 (antisense kG*kG*kA*dA*dA*dT*dT*dG*dT*d[5mC]*dT*d[5mC]*kA*kT*kG*e[5mC]) [Compound 1198547] | 27 |

same assay, conditions: Table 50; Yap1 mRNA remaining as percent of untreated control (UT), SNU-449 cells, single dose

| Substance | YAP1 (% UT) |
| --- | --- |
| 1198585 (antisense kT*kT*kT*dA*dG*dG*dA*dT*dG*d[5mC]*dA*dT*kG*kG*kT*eT) [Compound 1198585] | 22 |
| 1198616 (antisense kT*kT*kT*dA*dA*dA*dG*dT*dG*dT*dA*dT*kG*kT*k[5mC]*eA) [Compound 1198616] | 16 |
| 1198589 (antisense k[5mC]*kA*kG*dA*dT*dT*dT*dA*dG*dG*dA*dT*kG*k[5mC]*kA*eT) [Compound 1198589] | 24 |
| 1198592 (antisense kA*kT*kA*dT*dG*dG*dT*dT*dT*dT*dG*dT*kG*kT*kG*eT) [Compound 1198592] | 50 |
| 1198602 (antisense kA*kT*kA*dT*dT*dG*d[5mC]*dA*dA*dT*d[5mC]*dT*kG*kT*k[5mC]*eT) [Compound 1198602] | 29 |

same assay, conditions: Table 52; Yap1 mRNA, modified oligonucleotides targeting SEQ ID NO: 1 and 2

| Substance | YAP1 (% UT) |
| --- | --- |
| 1200817 (kA*kG*k[5mC]*dA*d[5mC]*mU*dT*dT*dT*dA*d[5mC]*dA*dT*kT*kA*kG; antisense) [Compound 1200817] | 38 |
| 1200811 (kT*kT*kA*d[5mC]*dA*mU*dT*dA*dG*dG*dA*dA*d[5mC]*kA*kA*kG; antisense) [Compound 1200811] | 62 |

same assay, conditions: Yap1 mRNA, percent of untreated control; modified oligonucleotides targeting SEQ ID NO: 1 and 2; Table 47

| Substance | YAP1 (% UT) |
| --- | --- |
| 1197211 (antisense kT*kA*kT*dG*dT*dA*dA*dT*dA*dT*dT*dG*d[5mC]*kA*kA*kT) [Compound 1197211] | 80 |
